test system: Vesicular stomatitis virus; test: Antiviral activity against Vesicular stomatitis virus infected in rabbit primary kidney cells assessed as inhibition of viral cytopathogenicity after 2 days; format: functional

SMILES | MID [µg/mL]
Nc1ncnc2c1ncn2C[C@@H](O)CO | 300
OC[C@@H](O)Cn1cnc2c(O)ncnc21 | >400
O=c1ccn(C[C@H](O)CO)c(=O)[nH]1 | 400
Cc1cn(C[C@H](O)CO)c(=O)[nH]c1=O | >400
Cc1cn(C[C@@H](O)CO)c(=O)[nH]c1=O | >400
Cc1c[nH]c(=O)n(C[C@H](O)CO)c1=O | >400
NCCn1cnc2c(N)ncnc21 | >400
CC(=O)OC[C@H](Cn1cnc2c(N)ncnc21)OC(C)=O | 300
Nc1ncnc2c1ncn2CC[C@H](O)CO | 100
Nc1ncnc2c1ncn2C[C@@H](O)[C@@H](O)CO | 300
Nc1ncnc2c1ncn2C[C@H](O)[C@H](O)CO | 100
Nc1ncnc2c1ncn2C[C@@H](O)[C@H](O)CO | 300
Nc1ncnc2c1ncn2C[C@H](O)[C@@H](O)CO | >400
O=c1ccn(CC[C@H](O)CO)c(=O)[nH]1 | >400
O=c1ccn(C[C@@H](O)[C@H](O)CO)c(=O)[nH]1 | 400
Nc1ncnc2c1ncn2C(CO)CO | 300
Nc1ncnc2c1ncn2CCCO | 200
Nc1ncnc2c1ncn2CCO | >400
Nc1ncnc2c1ncn2CC(O)CO (racemic) | 20

SMILES | MID [µg/mL]
Nc1nc(O)c2c(ncn2CC(O)CO)n1 (racemic) | >400
Nc1ncnc2c1ncn2CCC(O)CO (racemic) | 200
Nc1ncnc2c1ncn2CCC(O)CCO (racemic) | >400
Nc1nc(N)c2ncn(CC(O)CO)c2n1 (racemic) | >400
CSc1nc(N)c2ncn(CC(O)CO)c2n1 (racemic) | >400
Nc1ncnc2c1nc(O)n2CC(O)CO (racemic) | >400
Nc1ncnc2c1nc(S)n2CC(O)CO (racemic) | >400
CNc1ncnc2c1ncn2CC(O)CO (racemic) | >400
CN(C)c1ncnc2c1ncn2CC(O)CO (racemic) | >400
OCC(O)Cn1cnc2c(S)ncnc21 (racemic) | >400
Nc1nc2c(ncn2CC(O)CO)c(=O)[nH]1 (racemic) | >400
Nc1c2ncn(CC(O)CO)c2nc[n+]1[O-] (racemic) | >400
Nc1ccn(CC(O)CO)c(=O)n1 (racemic) | 400
O=c1cnn(CC(O)CO)c(=O)[nH]1 (racemic) | >400
CCC(=O)OCC(Cn1cnc2c(N)ncnc21)OC(=O)CC (racemic) | 300
CCCCCCCCCCCCCCCC(=O)OCC(O)Cn1cnc2c(N)ncnc21 (racemic) | >400
CC(C)(C)C(=O)OCC(O)Cn1cnc2c(N)ncnc21 (racemic) | >400
CC(C)(C)C(=O)OCC(Cn1cnc2c(N)ncnc21)OC(=O)C(C)(C)C (racemic) | >400
COC(CO)Cn1cnc2c(N)ncnc21 (racemic) | 300

SMILES | MID [µg/mL]
COCC(O)Cn1cnc2c(N)ncnc21 (racemic) | >400
COCC(Cn1cnc2c(N)ncnc21)OC (racemic) | 300
[N-]=[N+]=NCC(O)Cn1cnc2c(N)ncnc21 (racemic) | 200
[N-]=[N+]=NCC(Cn1cnc2c(N)ncnc21)N=[N+]=[N-] (racemic) | 400
Nc1ncnc2c1ncn2CC(N)CO (racemic) | 100
NCC(O)Cn1cnc2c(N)ncnc21 (racemic) | 200
NCC(N)Cn1cnc2c(N)ncnc21 (racemic) | >400
Nc1ncnc2c1ncn2CC(O)C(O)CO (racemic) | 200
O=c1ccn(CC(O)C(O)CO)c(=O)[nH]1 (racemic) | >400
O=c1ccn(C[C@H](O)[C@H](O)CO)c(=O)[nH]1 (racemic) | >400
O=c1ccn(CCC(O)CCO)c(=O)[nH]1 (racemic) | >400
C[C@@H](O)[C@@H](O)Cn1cnc2c(N)ncnc21 (racemic) | 100
CC(O)Cn1cnc2c(N)ncnc21 (racemic) | >400
Nc1ncnc2c1nc(Br)n2CC(O)CO (racemic) | >200
Nc1ncnc2c1ncn2C[C@H](O)CO [(S)-DHPA] | 7
Nc1ccn([C@@H]2O[C@H](CO)[C@@H](O)[C@@H]2O)c(=O)n1 [CYTARABINE] | 10
O=c1[nH]c(=O)n([C@H]2C[C@H](O)[C@@H](CO)O2)cc1I [IDOXURIDINE] | >400
Nc1ncnc2c1ncn2[C@@H]1O[C@H](CO)[C@@H](O)[C@@H]1O [VIDARABINE] | 20

From ChEMBL document CHEMBL3244391, “Antiviral activity of aliphatic nucleoside analogues: structure-function relationship” (1979)
